# Experimental data as given in publication PMC4254748 (Science (New York, N.Y.), 2014).
# What was measured:
# [1] = test system: yeast heterozygous and homozygous deletion strains; assay: HIP/HOP chemogenomic fitness profiling; type: cell-based; details: for Chemogenomic response signature induced: HIPHOP profile
# neo1Δ/NEO1 strain = assay: Growth of the neo1Δ/NEO1 strain; type: cell-based, yeast; details: OD600 for 24 hours
# [2] = test system: immortalized human leukemia cells; assay: Mitochondrial effects in immortalized human leukemia cells; type: cell-based; details: fig. S13
smiles,measurement,setting,value
CCCCNC(=O)n1c(NC(=O)OC)nc2ccccc21 [benomyl],Chemogenomic response signature induced,[1],induced a signature containing tubulin biogenesis and SWR1 complex genes
CO/C1=C\C(C)=C\[C@@H](C)[C@@H](O)[C@@H](C)C/C(C)=C/C=C/[C@H](OC)[C@@H]([C@@H](C)[C@@H](O)[C@H](C)[C@@]2(O)C[C@@H](O)[C@H](C)[C@@H](C(C)C)O2)OC1=O [bafilomycin A],Effect on tamoxifen-induced NEO1 haploinsufficiency,neo1Δ/NEO1 strain,rescued
COC(=O)Nc1nc2ccc(C(=O)c3cccs3)cc2[nH]1 [nocodazole],Chemogenomic response signature induced,[1],induced a signature containing tubulin biogenesis and SWR1 complex genes
OC(Cn1cncn1)(Cn1cncn1)c1ccc(F)cc1F [fluconazole],HIP hit / strain with largest fitness defect,[1]; HIP profile,Erg11Δ/ERG11 strain represents a “hit”
CC/C(=C(\c1ccccc1)c1ccc(OCCN(C)C)cc1)c1ccccc1 [Tamoxifen],Induction of NEO1 haploinsufficiency,neo1Δ/NEO1 strain,Tamoxifen-induced NEO1 haploinsufficiency
Oc1ccc(Cl)cc1Cc1cc(Cl)cc(Cc2cc(Cl)ccc2O)c1O [trichlorophene],Chemogenomic response signature induced,[1],induced mitochondrial stress
same,Generation of mitochondrial reactive oxygen species,[2],increased
same,Reserve oxygen capacity,[2],reduction
